Strand notation (5' to 3'): a small letter for the sugar, then the base; units joined by * are phosphorothioate-linked, units joined directly phosphodiester-linked; [ ] holds rarer units or linkages, { } end groups; capitals alone tell only the bases. [ms] = mesyl phosphoramidate linkage; e = 2'-O-(2-methoxyethyl) (MOE); [5mC] = 5-methylcytosine; d = 2'-deoxy (DNA)
System: human APOE RNA
Test: Activity in APOE C57BL/6NTac-Apoeem7250 knock-in mice, single ICV bolus, 16 weeks (Example 12)
Format: in vivo
Details: single ICV bolus 300 μg, 16 weeks post treatment, normalized to mouse Ppia
Description: Modified oligonucleotides described above were tested in the APOE C57BL/6NTac-Apoeem7250 knock-in mouse model described above.
APOE C57BL/6NTac-Apoeem7250 knock-in mice were divided into groups of 3-4 mice each. Each mouse received a single intracerebroventricular (ICV) bolus of 300 μg of modified oligonucleotide. A group of 4 mice received a single ICV bolus with PBS as a negative control.
Sixteen weeks post treatment, mice were sacrificed and RNA was extracted from cortical brain tissue and spinal cord for quantitative real-time RT-PCR analysis of RNA expression of APOE using primer probe set RTS3073 (described herein above). APOE RNA levels were normalized to mouse Ppia. Mouse Ppia was amplified using primer probe set m_cyclo24 (described herein above). Results are presented as percent human APOE RNA relative to the amount of human APOE RNA in PBS treated animals, (% control). Each experiment is identified in separate tables below.

## 1693073: 5-10-5 MOE gapmer ACTTGGTGAATCTTTATTAA, linkages sssossszzzzzsssssss (eA*e[5mC]*eT*eTeG*dG*dT*dG[ms]dA[ms]dA[ms]dT[ms]d[5mC][ms]dT*dT*dT*eA*eT*eT*eA*eA) [compound 1693073]
  APOE RNA (% control) Cortex: 107 % control
  APOE RNA (% control) Spinal Cord: 52 % control

## 1693074: 5-10-5 MOE gapmer ACTTGGTGAATCTTTATTAA, linkages ssosssszzzzzsssssss (eA*e[5mC]*eTeT*eG*dG*dT*dG[ms]dA[ms]dA[ms]dT[ms]d[5mC][ms]dT*dT*dT*eA*eT*eT*eA*eA) [compound 1693074]
  APOE RNA (% control) Cortex: 84 % control
  APOE RNA (% control) Spinal Cord: 71 % control

## 1693075: 5-10-5 MOE gapmer ACTTGGTGAATCTTTATTAA, linkages ssssssszzzzzsssssss (eA*e[5mC]*eT*eT*eG*dG*dT*dG[ms]dA[ms]dA[ms]dT[ms]d[5mC][ms]dT*dT*dT*eA*eT*eT*eA*eA) [compound 1693075]
  APOE RNA (% control) Cortex: 87 % control
  APOE RNA (% control) Spinal Cord: 64 % control

## 1693077: 6-10-4 MOE gapmer TTGGTGAATCTTTATTAAAC, linkages sosssszzszssszssoss (eT*eTeG*eG*eT*eG*dA[ms]dA[ms]dT*d[5mC][ms]dT*dT*dT*dA[ms]dT*dT*eAeA*eA*e[5mC]) [compound 1693077]
  APOE RNA (% control) Cortex: 98 % control
  APOE RNA (% control) Spinal Cord: 76 % control

## 1693078: 6-10-4 MOE gapmer TTGGTGAATCTTTATTAAAC, linkages ssossszzszssszssoss (eT*eT*eGeG*eT*eG*dA[ms]dA[ms]dT*d[5mC][ms]dT*dT*dT*dA[ms]dT*dT*eAeA*eA*e[5mC]) [compound 1693078]
  APOE RNA (% control) Cortex: 98 % control
  APOE RNA (% control) Spinal Cord: 99 % control

## 1693079: 6-10-4 MOE gapmer TTGGTGAATCTTTATTAAAC, linkages sssosszzszssszssoss (eT*eT*eG*eGeT*eG*dA[ms]dA[ms]dT*d[5mC][ms]dT*dT*dT*dA[ms]dT*dT*eAeA*eA*e[5mC]) [compound 1693079]
  APOE RNA (% control) Cortex: 93 % control
  APOE RNA (% control) Spinal Cord: 106 % control

## 1693080: 6-10-4 MOE gapmer TTGGTGAATCTTTATTAAAC, linkages ssssoszzszssszssoss (eT*eT*eG*eG*eTeG*dA[ms]dA[ms]dT*d[5mC][ms]dT*dT*dT*dA[ms]dT*dT*eAeA*eA*e[5mC]) [compound 1693080]
  APOE RNA (% control) Cortex: 99 % control
  APOE RNA (% control) Spinal Cord: 88 % control

## 1693081: 6-10-4 MOE gapmer TTGGTGAATCTTTATTAAAC, linkages sssssozzszssszssoss (eT*eT*eG*eG*eT*eGdA[ms]dA[ms]dT*d[5mC][ms]dT*dT*dT*dA[ms]dT*dT*eAeA*eA*e[5mC]) [compound 1693081]
  APOE RNA (% control) Cortex: 91 % control
  APOE RNA (% control) Spinal Cord: 100 % control

## 1693100: 6-10-4 MOE gapmer CTTGGTGAATCTTTATTAAA, linkages sssssszzzssssszsoss (e[5mC]*eT*eT*eG*eG*eT*dG[ms]dA[ms]dA[ms]dT*d[5mC]*dT*dT*dT*dA[ms]dT*eTeA*eA*eA) [compound 1693100]
  APOE RNA (% control) Cortex: 87 % control
  APOE RNA (% control) Spinal Cord: 51 % control

## 1693103: 6-10-4 MOE gapmer CTTGGTGAATCTTTATTAAA, linkages sssosszzzssssszssss (e[5mC]*eT*eT*eGeG*eT*dG[ms]dA[ms]dA[ms]dT*d[5mC]*dT*dT*dT*dA[ms]dT*eT*eA*eA*eA) [compound 1693103]
  APOE RNA (% control) Cortex: 84 % control
  APOE RNA (% control) Spinal Cord: 56 % control

## 1693104: 6-10-4 MOE gapmer CTTGGTGAATCTTTATTAAA, linkages ssossszzzssssszssss (e[5mC]*eT*eTeG*eG*eT*dG[ms]dA[ms]dA[ms]dT*d[5mC]*dT*dT*dT*dA[ms]dT*eT*eA*eA*eA) [compound 1693104]
  APOE RNA (% control) Cortex: 129 % control
  APOE RNA (% control) Spinal Cord: 52 % control

— patent US20250353873A1, “COMPOUNDS AND METHODS FOR MODULATING APOE EXPRESSION” (Ionis Pharmaceuticals, Inc., priority 2024, published 2025)
